Measured values: ChEMBL document CHEMBL1201862, “PubChem BioAssay data set” (2004)
Blank lines part the entries; values can stand above or below the compound they belong to. The source made the active and inactive calls.

Legend:
[1] = target: Voltage-dependent T-type calcium channel subunit alpha-1H (Homo sapiens, UniProt O95180); experiment: human CACNA1H calcium influx blockade – cell-based, synthetic library set 1, calcium flux (AID 493022); format: functional
[2] = target: Mu-type opioid receptor (Homo sapiens, UniProt P35372); experiment: SAR Analysis of Antagonists of the MOR Receptor using an Image-Based Assay - Set 3. [Related pubchem assays (depositor defined):AID1777, AID1785, AID1786, AID1966, AID2133, AID2136, AID2284, AID2285, AID2420]; format: functional
[3] = target: Delta-type opioid receptor (Homo sapiens, UniProt P41143); experiment: SAR Analysis of Antagonists of the DOR Receptor using an Image-Based Assay - Set 3. [Related pubchem assays (depositor defined):AID1777, AID1785]; format: functional;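 further: U2OS cells expressing DOR1 and beta-arrestin GFP stimulated with 100 nM SNC80; imaging of GFP-tagged beta-arrestin moving into spots after receptor activation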
[4] = target: T1, Kappa-type opioid receptor (Homo sapiens, UniProt P41145); experiment: SAR analysis of Antagonists of the Kappa Opioid Receptor (KOR) using an Image-Based Assay - Set 3. [Related pubchem assays (depositor defined):AID1777, AID1785]; format: functional
[5] = target: T1, Kappa-type opioid receptor; experiment: SAR analysis of small molecule antagonists of the kappa opioid receptor via a luminescent beta-arrestin assay - Set 3. [Related pubchem assays (depositor defined):AID1777, AID1778, AID1785, AID1786, AID1966, AID2133, AID2136, AID2285, AID2495]; format: functional
[6] = target: T2, fMet-Leu-Phe receptor (Homo sapiens, UniProt P21462); experiment: formyl peptide receptor binders – dose response (AID 519); format: functional
T2 sequence (P21462 whole entry): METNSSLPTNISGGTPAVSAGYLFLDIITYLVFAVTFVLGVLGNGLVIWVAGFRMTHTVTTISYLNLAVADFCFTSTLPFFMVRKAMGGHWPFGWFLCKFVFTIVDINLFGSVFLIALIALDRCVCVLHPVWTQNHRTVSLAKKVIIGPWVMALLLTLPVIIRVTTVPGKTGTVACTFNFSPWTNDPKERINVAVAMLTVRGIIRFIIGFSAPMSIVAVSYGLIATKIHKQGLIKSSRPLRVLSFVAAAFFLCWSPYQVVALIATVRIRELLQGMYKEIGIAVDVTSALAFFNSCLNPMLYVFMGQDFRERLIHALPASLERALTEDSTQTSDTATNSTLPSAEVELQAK

[7] = target: T3, Hexokinase HKDC1 (Homo sapiens, UniProt Q2TB90); experiment: activation of HKDC1 glucose phosphorylation – biochemical, W721R variant, dose response (AID 504730); format: functional
T3 sequence (Q2TB90 whole entry): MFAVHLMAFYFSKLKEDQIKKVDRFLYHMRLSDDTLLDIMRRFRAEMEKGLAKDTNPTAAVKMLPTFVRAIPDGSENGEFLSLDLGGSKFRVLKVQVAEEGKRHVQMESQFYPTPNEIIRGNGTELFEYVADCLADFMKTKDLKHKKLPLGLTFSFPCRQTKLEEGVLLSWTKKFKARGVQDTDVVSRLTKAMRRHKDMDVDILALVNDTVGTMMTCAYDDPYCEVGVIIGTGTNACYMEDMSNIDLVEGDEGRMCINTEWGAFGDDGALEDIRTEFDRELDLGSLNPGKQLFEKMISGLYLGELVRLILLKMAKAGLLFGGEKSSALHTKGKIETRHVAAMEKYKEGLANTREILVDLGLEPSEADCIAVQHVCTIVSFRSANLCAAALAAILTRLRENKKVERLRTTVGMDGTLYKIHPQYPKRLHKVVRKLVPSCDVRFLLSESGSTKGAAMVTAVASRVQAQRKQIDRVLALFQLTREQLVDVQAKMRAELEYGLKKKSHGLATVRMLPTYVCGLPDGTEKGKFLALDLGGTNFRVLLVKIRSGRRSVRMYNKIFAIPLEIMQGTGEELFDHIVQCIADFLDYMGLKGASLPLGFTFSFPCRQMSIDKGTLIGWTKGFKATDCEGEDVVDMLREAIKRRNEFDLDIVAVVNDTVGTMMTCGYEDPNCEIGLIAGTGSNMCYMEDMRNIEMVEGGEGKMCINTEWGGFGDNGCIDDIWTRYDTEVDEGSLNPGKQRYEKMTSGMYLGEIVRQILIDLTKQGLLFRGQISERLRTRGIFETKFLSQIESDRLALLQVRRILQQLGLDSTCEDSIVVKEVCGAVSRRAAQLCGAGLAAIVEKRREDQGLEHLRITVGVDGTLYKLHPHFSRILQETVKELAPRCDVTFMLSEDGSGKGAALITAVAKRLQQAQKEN

[8] = luciferase reporter signal suppression in cells – H4 neuroglioma cells, luminescence, dose response (AID 1990); format: functional, cell-based
[9] = system: J774.A1; experiment: Confirmation of image-based Screening Assay for Inhibitors of Phagocytosis. [Related pubchem assays (depositor defined):AID1029, AID1643]; format: functional, cell-based; conditions: Mus musculus
[10] = alpha-synuclein stem-loop luciferase translation blockers – H4 neuroglioma cells, luminescence, confirmation (AID 1988); format: functional, cell-based
[11] = target: Troponin, cardiac muscle (Homo sapiens, UniProt P19429+P45379+P63316); experiment: Fluorescence-based biochemical high throughput dose response assay for activators of the calcium sensitivity of cardiac Regulated Thin Filaments (RTF). [Related pubchem assays (depositor defined):AID493008, AID493018, AID504382, AID504383]; format: protein-complex assay
[12] = target: T4, Short transient receptor potential channel 4 (Mus musculus, UniProt Q9QUQ5); experiment: potentiation of DAMGO-evoked TRPC4 calcium signal – cell-based, HEK293 TRPC4/mu-opioid, Fluo-4 calcium, EC20 DAMGO, dose response (AID 434941); format: functional
T4 sequence (Q9QUQ5 whole entry): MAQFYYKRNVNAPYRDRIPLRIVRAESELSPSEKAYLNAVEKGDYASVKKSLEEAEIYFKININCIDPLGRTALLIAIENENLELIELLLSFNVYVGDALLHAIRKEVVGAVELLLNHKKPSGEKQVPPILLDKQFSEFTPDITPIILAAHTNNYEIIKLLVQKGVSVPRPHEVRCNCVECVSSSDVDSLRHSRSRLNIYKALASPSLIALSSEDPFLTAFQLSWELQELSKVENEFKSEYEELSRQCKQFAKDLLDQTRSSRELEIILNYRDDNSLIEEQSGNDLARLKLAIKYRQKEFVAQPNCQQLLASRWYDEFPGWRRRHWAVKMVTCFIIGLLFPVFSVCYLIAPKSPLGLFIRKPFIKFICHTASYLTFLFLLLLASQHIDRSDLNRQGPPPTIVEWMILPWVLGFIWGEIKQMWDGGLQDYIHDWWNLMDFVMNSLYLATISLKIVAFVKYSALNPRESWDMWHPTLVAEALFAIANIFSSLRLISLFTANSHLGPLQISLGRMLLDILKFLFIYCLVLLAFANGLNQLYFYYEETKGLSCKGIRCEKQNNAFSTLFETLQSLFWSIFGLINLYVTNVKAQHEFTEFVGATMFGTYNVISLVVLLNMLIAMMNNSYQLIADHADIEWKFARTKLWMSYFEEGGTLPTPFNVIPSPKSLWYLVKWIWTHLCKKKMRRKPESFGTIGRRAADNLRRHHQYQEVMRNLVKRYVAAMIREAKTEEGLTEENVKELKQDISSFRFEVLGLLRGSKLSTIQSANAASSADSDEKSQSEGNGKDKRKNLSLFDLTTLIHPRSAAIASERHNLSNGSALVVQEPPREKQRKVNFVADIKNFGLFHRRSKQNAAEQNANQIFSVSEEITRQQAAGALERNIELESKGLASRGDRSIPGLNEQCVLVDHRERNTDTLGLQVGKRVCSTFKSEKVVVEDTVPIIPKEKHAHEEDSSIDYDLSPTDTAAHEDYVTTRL

[13] = target: T5, Tyrosine-protein phosphatase non-receptor type 22 (Homo sapiens, UniProt Q9Y2R2); format: functional
[14] = target: T6, Tyrosine-protein phosphatase non-receptor type 7 (Homo sapiens, UniProt P35236); format: functional
T6 sequence (P35236 whole entry): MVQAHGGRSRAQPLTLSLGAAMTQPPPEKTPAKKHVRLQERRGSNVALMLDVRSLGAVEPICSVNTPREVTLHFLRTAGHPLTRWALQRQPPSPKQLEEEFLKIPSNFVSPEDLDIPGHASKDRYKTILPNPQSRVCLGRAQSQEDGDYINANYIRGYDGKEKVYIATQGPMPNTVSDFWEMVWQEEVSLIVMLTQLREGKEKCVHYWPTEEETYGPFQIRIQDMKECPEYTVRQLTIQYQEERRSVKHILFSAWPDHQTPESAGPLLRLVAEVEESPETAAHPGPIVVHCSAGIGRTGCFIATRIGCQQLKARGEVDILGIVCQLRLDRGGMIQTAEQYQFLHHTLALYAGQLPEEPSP

[15] = target: T5, Tyrosine-protein phosphatase non-receptor type 22; format: functional; remark: listed apart in the source
[16] = target: T7, Runt-related transcription factor 1/Core-binding factor subunit beta (Homo sapiens, UniProt Q01196+Q13951); experiment: Runt domain/CBFb-SMMHC interaction disruptors – biochemical, TR-FRET (AID 1438); format: protein assay
[17] = target: T7, Runt-related transcription factor 1/Core-binding factor subunit beta; experiment: disruptors of Runt domain/CBFb-SMMHC interaction – biochemical, FRET, Cerulean-Runt, Venus-CBFb-SMMHC, uHTS, […] (AID 1434); format: protein assay
[18] = target: E3 ubiquitin-protein ligase XIAP (Homo sapiens, UniProt P98170); experiment: Counter Screen using XIAP-Bir3 for Chemical Antagonists of Bir1/2 domains of IAP-family anti-apoptotic proteins. [Related pubchem assays (depositor defined):AID1018, AID1449, AID1514, AID1638, AID1749, AID1750, AID488957, AID488963]
[19] = target: T3, Hexokinase HKDC1; experiment: inhibition of HKDC1 glucose phosphorylation – biochemical, W721R variant, dose response (AID 504729); format: functional
[20] = target: Polyadenylate-binding protein 1 (Homo sapiens, UniProt P11940); experiment: PABP inhibition in translation initiation, SAR follow-up (AID 435018); format: functional
[21] = target: Eukaryotic translation initiation factor 4H (Homo sapiens, UniProt Q15056); experiment: inhibitors of translation initiation factor eIF4H – SAR follow-up (AID 435011); format: functional
[22] = target: T6, Tyrosine-protein phosphatase non-receptor type 7; experiment: redox-active compounds inhibiting HePTP phosphatase – biochemical, fluorescence, mechanism study (AID 2068); format: functional
[23] = target: T1, Kappa-type opioid receptor; experiment: SAR analysis of small molecule antagonists of the kappa opioid receptor via a luminescent beta-arrestin assay - Set 4. [Related pubchem assays (depositor defined):AID1777, AID1778, AID1785, AID1786, AID1966, AID2133, AID2136, AID2285]; format: functional
[24] = target: T1, Kappa-type opioid receptor; experiment: SAR analysis of Antagonists of the Kappa Opioid Receptor (KOR) using an Image-Based Assay - Set 4. [Related pubchem assays (depositor defined):AID1777, AID1785]; format: functional
[25] = system: T-cell; experiment: loss of vesicle association with mouse CD8+ T cells – mouse 2C CD8+ T cells, flow cytometry, dose response (AID 485284); format: functional

SMILES: CCc1ccc(-c2nc(C(N)=O)c3nc(O)n(-c4ccccc4OC)c3n2)cc1
EC50 [8]: 8.19 µM (active) | IC50 [9]: 12.5 µM (active) | EC50 [10]: 0.185 µM (active)

SMILES: O=C(Nc1ccccc1)C1=C[C@H](C2CCCCC2)C[C@H](OCc2ccc(CO)cc2)O1
EC50 [12]: 2.99 µM (active)

SMILES: O=C(NCc1ccccn1)c1cc2c(ccc3ccccc32)oc1=O
IC50 [16]: > 100 µM (inactive) | IC50 [17]: 1.33 µM (active)

SMILES: COc1ccc(NC(=O)CSc2ccc(-c3ccco3)nn2)cc1OC
IC50 [19]: 13.6 µM (active) | IC50 [20]: > 100 µM (inactive) | IC50 [21]: 73.8 µM (active)

SMILES: Cc1ccc(S(=O)(=O)NCc2ccc(C(=O)NC3CCCN(Cc4ccccc4)C3)cc2)cc1 (configuration not stated)
IC50 [2]: 6.75 µM (active) | IC50 [23]: 18.6 µM (inactive) | IC50 [3]: > 32 µM (inactive) | IC50 [24]: > 32 µM (inactive)

SMILES: CCCCn1nc(C(=O)N2CCN(S(=O)(=O)c3ccccc3)CC2)c2ccccc2c1=O
EC50 [25]: 10.3 µM (active)

Second part, the compound after the results:

EC50 [1]: 2.6 µM (active)
SMILES: Cc1ccc(-c2nnc(NC(=O)C(C)Oc3ccccc3)o2)cc1C (configuration not stated)

IC50 [2]: > 32 µM (inactive) | IC50 [3]: > 32 µM (inactive) | IC50 [4]: 6.08 µM (active) | IC50 [5]: > 20 µM (inactive)
SMILES: O=C(NCCN(Cc1ccccc1)Cc1ccccc1)c1ccc(CNS(=O)(=O)c2ccc(Br)cc2)cc1

Ki [6]: 29.7 µM (inactive) | EC50 [7]: > 80 µM (inactive)
SMILES: COCc1cc(C2C(C(=O)c3ccco3)=C(O)C(=O)N2CCOCCO)ccc1O (configuration not stated)

EC50 [11]: > 71.5 µM (inactive)
SMILES: Cc1ccc(C)c(N2CCN(C(=O)CN3C(S)=NC(C)(C)CC3C)CC2)c1 (configuration not stated)

IC50 [13]: > 79.4 µM (inactive) | IC50 [14]: > 79.4 µM (inactive) | IC50 [15]: > 79.4 µM (inactive)
SMILES: CCN(CCO)Cc1csc2ccc(C(C)(C)C)cc12

IC50 [18]: > 20 µM (inactive)
SMILES: CC(C)(C)c1ccc(C(CC(=O)O)NC(=O)Cc2ccc(F)cc2)cc1 (configuration not stated)

IC50 [22]: > 50 µM (inactive)
SMILES: O=C(NCc1ccco1)Nc1ccc2nc(-c3ccco3)c(-c3ccco3)nc2c1
